Measurements as given in ChEMBL document CHEMBL3875218, “Bifunctional conjugates with potent inhibitory activity towards cyclooxygenase and histone deacetylase” (Bioorg Med Chem, 2017).
The source made the active and inactive calls. The rule behind the calls is not given here.

What was measured:
Histone deacetylase 1 = Histone deacetylase 1 (Homo sapiens, UniProt Q13547); assay: Inhibition of HDAC1 (unknown origin) after 24 hrs by SAMDI mass spectroscopic analysis
Histone deacetylase 2 [1] = target: T1, Histone deacetylase 2 (Homo sapiens, UniProt Q92769); assay: Inhibition of HDAC2 (unknown origin) after 24 hrs by SAMDI mass spectroscopic analysis
T1 sequence (Q92769 whole entry): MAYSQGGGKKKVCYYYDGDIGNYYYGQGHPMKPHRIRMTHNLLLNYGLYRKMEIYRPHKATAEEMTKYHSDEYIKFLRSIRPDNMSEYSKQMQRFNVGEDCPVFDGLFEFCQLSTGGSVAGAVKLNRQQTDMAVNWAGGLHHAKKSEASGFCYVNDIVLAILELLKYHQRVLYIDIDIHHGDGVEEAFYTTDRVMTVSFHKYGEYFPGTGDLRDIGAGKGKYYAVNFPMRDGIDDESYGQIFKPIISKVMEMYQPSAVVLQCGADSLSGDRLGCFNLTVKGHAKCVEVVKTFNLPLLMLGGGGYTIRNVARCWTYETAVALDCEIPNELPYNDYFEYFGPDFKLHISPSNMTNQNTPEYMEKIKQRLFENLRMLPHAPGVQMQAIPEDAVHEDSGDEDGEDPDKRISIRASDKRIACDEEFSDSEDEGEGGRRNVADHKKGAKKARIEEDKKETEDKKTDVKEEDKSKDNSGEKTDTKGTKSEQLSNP

Histone deacetylase 3 = Histone deacetylase 3 (Homo sapiens, UniProt O15379); assay: Inhibition of HDAC3 (unknown origin) after 5 hrs by SAMDI mass spectroscopic analysis
Chain of Histone deacetylase 3 (O15379 whole entry): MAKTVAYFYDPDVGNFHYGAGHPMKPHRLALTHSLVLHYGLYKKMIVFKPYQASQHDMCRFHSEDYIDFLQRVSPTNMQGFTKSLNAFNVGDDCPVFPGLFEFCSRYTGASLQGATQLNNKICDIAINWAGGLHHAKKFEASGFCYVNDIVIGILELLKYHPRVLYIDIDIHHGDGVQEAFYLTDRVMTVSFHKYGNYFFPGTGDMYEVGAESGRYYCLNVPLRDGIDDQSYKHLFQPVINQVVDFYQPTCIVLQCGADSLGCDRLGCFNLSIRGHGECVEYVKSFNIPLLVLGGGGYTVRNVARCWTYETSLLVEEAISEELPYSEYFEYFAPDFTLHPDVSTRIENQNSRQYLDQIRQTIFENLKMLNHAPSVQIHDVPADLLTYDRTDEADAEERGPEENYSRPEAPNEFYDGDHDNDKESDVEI

[2] = target: T2, Protein deacetylase HDAC6 (Homo sapiens, UniProt Q9UBN7); assay: Inhibition of HDAC6 (unknown origin) after 20 hrs by SAMDI mass spectroscopic analysis
T2 sequence (Q9UBN7 whole entry): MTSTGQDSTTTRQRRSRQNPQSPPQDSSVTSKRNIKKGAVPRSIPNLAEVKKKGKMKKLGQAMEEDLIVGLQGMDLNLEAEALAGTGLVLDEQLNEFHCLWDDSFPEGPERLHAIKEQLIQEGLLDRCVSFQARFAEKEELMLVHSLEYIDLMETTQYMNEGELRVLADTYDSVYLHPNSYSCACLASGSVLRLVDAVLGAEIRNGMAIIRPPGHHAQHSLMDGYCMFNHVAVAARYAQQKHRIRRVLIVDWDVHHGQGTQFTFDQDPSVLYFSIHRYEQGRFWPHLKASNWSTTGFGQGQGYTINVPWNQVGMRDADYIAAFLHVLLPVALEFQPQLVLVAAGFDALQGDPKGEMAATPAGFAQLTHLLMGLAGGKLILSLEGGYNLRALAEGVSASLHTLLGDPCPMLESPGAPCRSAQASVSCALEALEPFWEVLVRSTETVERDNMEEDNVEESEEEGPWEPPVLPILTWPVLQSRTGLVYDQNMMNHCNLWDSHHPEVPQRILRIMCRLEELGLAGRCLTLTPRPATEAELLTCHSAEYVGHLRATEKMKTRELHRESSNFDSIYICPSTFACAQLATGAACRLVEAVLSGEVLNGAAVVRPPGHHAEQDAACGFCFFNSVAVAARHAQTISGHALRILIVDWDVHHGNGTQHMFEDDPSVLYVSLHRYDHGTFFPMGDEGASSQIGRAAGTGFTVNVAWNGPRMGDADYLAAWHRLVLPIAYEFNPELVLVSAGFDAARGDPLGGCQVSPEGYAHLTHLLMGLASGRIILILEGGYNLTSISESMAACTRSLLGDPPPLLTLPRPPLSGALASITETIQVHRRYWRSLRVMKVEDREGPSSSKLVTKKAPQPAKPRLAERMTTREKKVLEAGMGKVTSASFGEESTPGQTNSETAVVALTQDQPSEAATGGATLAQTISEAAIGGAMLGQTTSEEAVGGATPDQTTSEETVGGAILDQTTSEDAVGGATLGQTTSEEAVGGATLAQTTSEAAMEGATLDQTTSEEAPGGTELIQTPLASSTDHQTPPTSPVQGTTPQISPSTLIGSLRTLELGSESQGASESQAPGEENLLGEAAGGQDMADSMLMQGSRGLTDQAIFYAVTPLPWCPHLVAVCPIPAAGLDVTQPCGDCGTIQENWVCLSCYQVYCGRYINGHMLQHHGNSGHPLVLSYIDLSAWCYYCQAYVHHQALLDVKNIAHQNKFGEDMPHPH

Histone deacetylase 8 = target: T3, Histone deacetylase 8 (Homo sapiens, UniProt Q9BY41); assay: Inhibition of HDAC8 (unknown origin) after 2.5 hrs by SAMDI mass spectroscopic analysis
T3 sequence (Q9BY41 whole entry): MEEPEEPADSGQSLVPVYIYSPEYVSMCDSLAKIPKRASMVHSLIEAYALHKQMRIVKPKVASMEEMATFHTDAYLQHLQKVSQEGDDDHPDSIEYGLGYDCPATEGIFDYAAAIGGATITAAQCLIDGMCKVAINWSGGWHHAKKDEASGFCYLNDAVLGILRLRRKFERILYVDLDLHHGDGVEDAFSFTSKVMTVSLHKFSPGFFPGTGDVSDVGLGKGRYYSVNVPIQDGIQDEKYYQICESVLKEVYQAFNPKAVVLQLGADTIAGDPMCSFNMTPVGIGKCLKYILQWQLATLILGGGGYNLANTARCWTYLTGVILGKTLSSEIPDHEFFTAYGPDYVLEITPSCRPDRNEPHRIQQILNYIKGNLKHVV

[3] = target: T4, Prostaglandin G/H synthase 1 (Ovis aries) (UniProt P05979); assay: Inhibition of sheep COX1 at 10 uM using arachidonic acid as substrate preincubated for 15 mins followed by substrate addition for 2 mins by Cayman based fluorescence assay
T4 sequence (whole entry): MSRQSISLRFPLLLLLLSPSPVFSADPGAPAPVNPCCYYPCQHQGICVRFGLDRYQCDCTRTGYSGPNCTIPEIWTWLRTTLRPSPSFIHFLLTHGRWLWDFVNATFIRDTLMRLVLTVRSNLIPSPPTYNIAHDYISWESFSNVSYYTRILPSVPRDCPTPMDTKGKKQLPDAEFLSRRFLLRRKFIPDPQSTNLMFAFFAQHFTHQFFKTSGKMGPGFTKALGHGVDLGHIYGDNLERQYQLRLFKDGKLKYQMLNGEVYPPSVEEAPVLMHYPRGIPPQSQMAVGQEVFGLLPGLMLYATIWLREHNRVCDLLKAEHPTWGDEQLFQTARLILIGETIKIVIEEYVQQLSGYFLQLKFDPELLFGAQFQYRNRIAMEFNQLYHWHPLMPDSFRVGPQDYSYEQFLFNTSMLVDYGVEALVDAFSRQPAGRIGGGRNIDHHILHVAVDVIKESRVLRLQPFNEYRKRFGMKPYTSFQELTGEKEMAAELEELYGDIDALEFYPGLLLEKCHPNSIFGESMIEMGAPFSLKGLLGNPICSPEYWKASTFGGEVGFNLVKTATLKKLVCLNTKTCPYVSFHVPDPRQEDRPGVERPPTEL

[4] = target: T5, Prostaglandin G/H synthase 2 (Homo sapiens) (UniProt P35354); assay: Inhibition of recombinant human COX2 at 10 uM using arachidonic acid as substrate preincubated for 15 mins followed by substrate addition for 2 mins by Cayman based fluorescence assay
T5 sequence (whole entry): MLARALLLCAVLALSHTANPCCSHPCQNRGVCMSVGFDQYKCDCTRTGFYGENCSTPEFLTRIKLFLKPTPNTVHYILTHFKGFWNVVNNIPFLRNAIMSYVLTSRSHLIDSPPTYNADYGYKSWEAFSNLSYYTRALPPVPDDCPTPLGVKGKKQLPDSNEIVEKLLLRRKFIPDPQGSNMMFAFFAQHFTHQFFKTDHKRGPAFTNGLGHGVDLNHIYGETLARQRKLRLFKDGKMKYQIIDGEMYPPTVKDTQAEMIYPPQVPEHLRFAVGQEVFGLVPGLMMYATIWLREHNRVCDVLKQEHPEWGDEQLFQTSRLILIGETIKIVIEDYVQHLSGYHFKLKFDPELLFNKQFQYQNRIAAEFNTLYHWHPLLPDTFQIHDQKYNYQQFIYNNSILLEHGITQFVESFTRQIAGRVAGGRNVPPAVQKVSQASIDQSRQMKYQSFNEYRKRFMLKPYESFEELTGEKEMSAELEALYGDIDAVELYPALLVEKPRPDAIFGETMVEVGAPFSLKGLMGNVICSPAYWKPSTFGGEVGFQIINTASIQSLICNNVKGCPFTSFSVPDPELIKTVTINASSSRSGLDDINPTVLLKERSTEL

[5] = Cytotoxicity against human MCF7 cells assessed as cell growth inhibition after 72 hrs by MTT assay; type: functional, cell-based; conditions: MCF7, 72 h
[6] = Cytotoxicity against human A549 cells assessed as cell growth inhibition after 72 hrs by MTT assay; type: functional, cell-based; conditions: A549, 72 h
[7] = Cytotoxicity against human LNCAP cells assessed as cell growth inhibition after 72 hrs by MTT assay; type: functional, cell-based
[8] = Cytotoxicity against human DU145 cells assessed as cell growth inhibition after 72 hrs by MTT assay; type: functional, cell-based; conditions: DU-145, 72 h
[9] = Cytotoxicity against African green monkey Vero cells assessed as cell growth inhibition after 72 hrs by MTT assay; type: toxicity, cell-based; conditions: African green monkey (Chlorocebus sabaeus)
Histone deacetylase 2 [10] = target: T1, Histone deacetylase 2; assay: Inhibition of HDAC2 (unknown origin) at 10 uM after 24 hrs by SAMDI mass spectroscopic analysis
[11] = Cytotoxicity against human HCT116 cells assessed as cell growth inhibition after 72 hrs by MTT assay; type: functional, cell-based; conditions: HCT-116, 72 h
[12] = target: T6, Prostaglandin G/H synthase 2 (Homo sapiens, UniProt P35354); assay: Inhibition of recombinant human COX2 using arachidonic acid as substrate preincubated for 15 mins followed by substrate addition for 2 mins by Cayman based fluorescence assay
T6 sequence (P35354 whole entry): T5 sequence (whole entry)

LNCaP [13] = assay: Induction of cell cycle arrest in human LNCAP cells assessed as accumulation at lesser G1 phase at 2.5 uM after 24 hrs by propidium iodide staining based FACS analysis (reference value: 1.59%); type: functional
LNCaP [14] = assay: Induction of cell cycle arrest in human LNCAP cells assessed as accumulation at G1 phase at 2.5 uM after 24 hrs by propidium iodide staining based FACS analysis (reference value: 69.5%); type: functional
LNCaP [15] = assay: Induction of cell cycle arrest in human LNCAP cells assessed as accumulation at S phase at 2.5 uM after 24 hrs by propidium iodide staining based FACS analysis (reference value: […]); type: functional
LNCaP [16] = assay: Induction of cell cycle arrest in human LNCAP cells assessed as accumulation at G2 phase at 2.5 uM after 24 hrs by propidium iodide staining based FACS analysis (reference value: 1.08%); type: functional
LNCaP [17] = assay: Induction of cell cycle arrest in human LNCAP cells assessed as accumulation at greater G2 phase at 2.5 uM after 24 hrs by propidium iodide staining based FACS analysis (reference value: 0.20%); type: functional
BEAS2B = conditions: Homo sapiens, at 1 µM
Description: Inhibition of HDAC in human BEAS2B cells assessed as reduction of NTHi-induced NFkappaB activation at 1 uM preincubated for 1 hr followed by NTHi stimulation for 5 hrs by luciferase reporter gene assay

[18] = Cytotoxicity against human MCF7 cells assessed as cell growth inhibition at 100 uM after 72 hrs by MTT assay; type: functional; conditions: MCF7, 72 h, read-out: GI
LNCaP [19] = assay: Induction of cell cycle arrest in human LNCAP cells assessed as accumulation at G1 phase at 40 uM after 24 hrs by propidium iodide staining based FACS analysis (reference value: 69.5%); type: functional
LNCaP [20] = assay: Induction of cell cycle arrest in human LNCAP cells assessed as accumulation at S phase at 40 uM after 24 hrs by propidium iodide staining based FACS analysis (reference value: […]); type: functional
LNCaP [21] = assay: Induction of cell cycle arrest in human LNCAP cells assessed as accumulation at lesser G1 phase at 40 uM after 24 hrs by propidium iodide staining based FACS analysis (reference value: 1.59%); type: functional
LNCaP [22] = assay: Induction of cell cycle arrest in human LNCAP cells assessed as accumulation at greater G2 phase at 40 uM after 24 hrs by propidium iodide staining based FACS analysis (reference value: 0.20%); type: functional
LNCaP [23] = conditions: Homo sapiens, at 10 µM
Description: Inhibition of HDAC in human LNCAP cells assessed as down regulation of androgen receptor expression at 10 uM after 24 hrs by Western blot analysis

Chain of Histone deacetylase 1 (Q13547 whole entry): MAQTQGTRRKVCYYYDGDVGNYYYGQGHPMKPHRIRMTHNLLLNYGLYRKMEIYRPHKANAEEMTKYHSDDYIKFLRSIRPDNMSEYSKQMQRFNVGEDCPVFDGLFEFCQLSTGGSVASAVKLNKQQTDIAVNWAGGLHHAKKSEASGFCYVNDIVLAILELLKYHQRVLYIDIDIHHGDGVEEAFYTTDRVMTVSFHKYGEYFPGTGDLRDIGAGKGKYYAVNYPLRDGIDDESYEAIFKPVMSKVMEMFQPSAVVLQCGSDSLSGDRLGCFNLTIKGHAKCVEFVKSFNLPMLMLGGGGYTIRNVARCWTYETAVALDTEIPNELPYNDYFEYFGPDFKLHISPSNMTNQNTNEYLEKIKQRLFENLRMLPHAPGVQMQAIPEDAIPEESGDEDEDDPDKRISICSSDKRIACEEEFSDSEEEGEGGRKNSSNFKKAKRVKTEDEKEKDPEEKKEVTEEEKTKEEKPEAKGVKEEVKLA

| SMILES | IC50 (Histone deacetylase 1) [nM] | IC50 (Histone deacetylase 2 [1]) [nM] | IC50 (Histone deacetylase 3) [nM] | IC50 [2] [nM] | IC50 (Histone deacetylase 8) [nM] | inhibition [3] [%] | inhibition [4] [%] | IC50 [5] [nM] | IC50 [6] [nM] | IC50 [7] [nM] | IC50 [8] [nM] | IC50 at 72 h [9] [nM] | inhibition (Histone deacetylase 2 [10]) [%] | IC50 [11] [nM] | inhibition of growth at 100 µM [18] [%] | other results |
| --- | --- | --- | --- | --- | --- | --- | --- | --- | --- | --- | --- | --- | --- | --- | --- | --- |
| Cc1ccc(-c2cc(C(F)(F)F)nn2-c2ccc(S(=O)(=O)NCCCCCCCC(=O)NO)cc2)cc1 | 968 | 929 | 256 | 61 | 989 | 26.1 | 95.6 | 4580 | 8150 | 2110 | 10100 | 6610 | – | – | – | – |
| COc1ccc2c(c1)c(CC(=O)NCCCCCC(=O)NO)c(C)n2C(=O)c1ccc(Cl)cc1 | 1810 | – | 722 | 49 | 345 | 40.2 | 95.1 | > 100000 | 31900 | > 20000 | – | – | 41 | 16100 | – | – |
| COc1ccc2c(c1)c(CC(=O)O)c(C)n2C(=O)c1ccc(Cl)cc1 [INDOMETHACIN] | – | – | – | – | – | – | – | – | – | – | – | – | – | – | 5.2 | Activity (LNCaP [19]): 71.5%; Activity (LNCaP [20]): 23.5%; Activity (LNCaP [21]): 2.81%; Activity (LNCaP [22]): 0.88%; inhibition (LNCaP [23]): Active |

Now from value to compound, other results behind:

| IC50 (Histone deacetylase 1) [nM] | IC50 (Histone deacetylase 2 [1]) [nM] | IC50 (Histone deacetylase 3) [nM] | IC50 [2] [nM] | IC50 (Histone deacetylase 8) [nM] | inhibition [3] [%] | inhibition [4] [%] | SMILES | IC50 [5] [nM] | IC50 [6] [nM] | IC50 [7] [nM] | IC50 [8] [nM] | IC50 at 72 h [9] [nM] | inhibition (Histone deacetylase 2 [10]) [%] | IC50 [11] [nM] | inhibition of growth at 100 µM [18] [%] | other results |
| --- | --- | --- | --- | --- | --- | --- | --- | --- | --- | --- | --- | --- | --- | --- | --- | --- |
| 1760 | – | 283 | 50 | 707 | 42.8 | 96.2 | COc1ccc2c(c1)c(CC(=O)NCCCCCCCC(=O)NO)c(C)n2C(=O)c1ccc(Cl)cc1 | 25100 | – | 6460 | > 20000 | 34700 | 43 | 24800 | – | – |
| 261 | – | 338 | 50 | 345 | – | 60.2 | Cc1ccc(-c2cc(C(=O)NCCCCCCC(=O)NO)nn2-c2ccc(S(C)(=O)=O)cc2)cc1 | – | – | – | – | – | – | – | – | IC50 [12]: 4440 nM; Activity (LNCaP [13]): 0.029%; Activity (LNCaP [14]): 85.9%; Activity (LNCaP [15]): 13.8%; Activity (LNCaP [16]): 0.5%; Activity (LNCaP [17]): 0.21%; inhibition (BEAS2B): Active |
| 111 | 302 | 59 | 22 | 116 | – | 40.6 | COc1ccc2c(c1)c(CC(=O)O)c(C)n2Cc1ccc(-c2cn(CCCCCCC(=O)NO)nn2)cc1 | – | – | – | – | – | – | 9900 | 47.8 | – |
